The values that follow come from patent US12226405B2, “Compounds and compositions for inhibiting the activity of HIF2-alpha and their methods of use” (Novartis AG, priority 2020, dated 2025).

Experiment [1] has as its system HIF2α-regulated expression of the endogenous target gene hEGLN3 in 786-O cells. Put plainly: Cellular iScript assay for HIF2α (quantitative RT-PCR of hEGLN3). The conditions noted are these: Homo sapiens, 786-0, 48 hours incubation. The class given is cell-based, human. The protocol:
(§1) Stock solutions of compounds were prepared at a concentration of 10 mM in DMSO and stored at 4° C. Where necessary to afford a full dose-response curve, the stock solutions were pre-diluted in DMSO to 1,000-fold the desired reduced start concentration. On the day after cell seeding, eleven 2-fold serial dilutions of each compound were dispensed directly into the cell assay plates using either HP 300D non-contact Digital Dispenser (TECAN) or a ATS100 acoustic dispenser (EDC Biosystems).
Compound-mediated modulation of the HIF2α-regulated expression of the endogenous target gene hEGLN3 (OMIM: 606426), as well as beta-actin (OMIM: 102630) as a house-keeping control, was assess in 786-O cells (RRID CVCL_1051) using a quantitative RT-PCR approach. In short, 786-O cells were maintained in growth medium composed of DMEM (GIBCO #11995-065), 2 mM L-Glutamine (BioConcept #5-10K50-H), 1× Penicillin/Streptomycin (BioConcept #4-01F00-H), 10% fetal calf serum (Gibco #A31608-01), 1 mM Sodium pyruvate (BioConcept #5-60F00-H). Cells were seeded at 1,000 cells/20 μL/well into white-wall, clear-bottom 384-well plates (Greiner #781098) and incubated over night at 37° C. prior to addition of serial compound dilutions as described above. Following incubation for 48 hours at 37° C., medium supernatant was discarded and the plate blotted dry by inverting on a tissue. The same procedure was repeated following one wash with 20 μL phosphate-buffered saline. Following addition of 25 μL/well iScript sample preparation reagent (BioRad #170-8899) using a 16-channel Matrix pipette, the plate was incubated for 2 min at room temperature. 20 μL lysate supernatant was then removed and transferred to a new 384 well plate (Costar #3656) and diluted 1:3 by adding 5 μL of the lysate to 10 μL H2O using a Bravo liquid handler (Agilent). 2 μL of the diluted lysate was added to the 8 μL of a mastermix containing 5 μL iTaq Universal Probes One-step kit (BioRad #172-5141), 0.25 μL iScript reverse transcription supermix (BioRad #1708840), 0.25 μL 40×HEX-ZEN-labeled TaqMan probe for beta-actin (IDT #Hs.PT.39a.22214847: Probe 5′ HEX-TCA TCC ATG/ZEN/GTG AGC TGG CGG-3′ (SEQ ID NO: 2) Iowa Black FQ, Primer 1: ACA GAG CCT CGC CTT TG (SEQ ID NO: 3); Primer 2: CCT TGC ACA TGC CGG (SEQ ID NO: 4) AG), 0.25 μL, 40×FAM-ZEN-labeled TaqMan probe for hEGLN3 (IDT #Hs.PT.58.189348: Probe 5′ 6-FAM-TTT GGC TTC/ZEN/TGC CCT TTC TTC AGC-3′ (SEQ ID NO: 5) Iowa Black FQ, Primer 1: CACGGTCAGTCTTCAGTGAG (SEQ ID NO: 6); Primer 2: CGCAACCAGATATGCTATGACT (SEQ ID NO: 7)), 2.25 μL RNase-free water, prelaid in a 384 well plate (ABI #4309849) using a 16-channel Matrix pipette. The plate was sealed with a PCR-compatible optical film (MicroAmp, ABI #4360954) and centrifuged (1500 rpm, 5 min, +4° C.) to collect all reagents in the bottom of the well and to remove bubbles. The plate content was amplified on a 7900HT thermal cycler (ABI) using the following conditions: Step 1: 50° C. for 10 min, Step 2: 95° C. for 3 min, Step 3 (40×): 95° C. for 15 s, 60° C. for 1 min. ROX (reaction volume 10 μL) was used as a passive reference. Data were collected with manual adjustment of the Ct threshold (beta-actin: 0.046, hEGLN3: 0.06) and were analyzed using the 2^(−ΔΔCt) method. Thus, for each sample, the following values were calculated: 2^(−Ct)a for beta-actin, 2^(−Ct)e for EGLN3, and 2^(−ΔCt) calculated as (2^(−Ct)e/2^(−Ct)a). The mean 2^(−ΔCt) as well as the corresponding standard deviation was calculated for each sample. Taking the DMSO-treated sample as a reference, the 2^(−ΔΔCt) for each sample was calculated as follows: 2^(−ΔΔCt)=2^(−ΔCt)sample/(2^(−ΔCt)DMSO). After calculating differential expression as 2^(−ΔΔCt) for each sample, it was then expressed as a percentage (×100) to obtain a dose-response curve in % of DMSO control and IC50s were calculated using a four-parametric fit model.

For experiment [2], the system named is HIF2α-dependent transcription in 786-O-HRE-Luc cells. The experiment can be described thus: In vitro cellular hypoxia response element (HRE) reporter gene assay (RGA) for HIF2α. It counts as cell-based, human. As to conditions: Homo sapiens, 24 hours incubation. The protocol:
as §1
The ability of compounds to inhibit HIF2α- and HIF1α-dependent transcription was assessed in 786-O-HRE-Luc and RCC4-HRE-Luc cells, respectively. The putative unselective inhibition of firefly luciferase activity or expression was assessed in 786-O-UB6-Luc and RCC4-UB6-Luc cells, respectively. The reporter lines were generated as follows: 786-O (RRID: CVCL_1051) and RCC4 (RRID: CVCL_0498) clear cell renal carcinoma cell lines were obtained from ATCC and Celeste Simon (University of Pennsylvania), respectively. Either cell line was transduced with a lentiviral vector in which the expression of a PEST-destabilized version of firefly-luciferase is under the control of either a minimal promoter coupled to four copies of a minimal hypoxia response element (HRE) sequence (pLenti 4×HRE Luc PEST), or a promoter from the house-keeping UBC gene (pLenti UB6 Luc PEST). In short, for the construction of the pLenti 4×HRE Luc PEST vector, 4×HRE DNA oligonucleotides were synthesized, annealed and cloned into pGL4.27 plasmid vector (Promega) predigested with NheI and HindIII restriction enzymes. The sequence of the two DNA oligonucleotides was as follows: NheI 4×HRE HindIII FWD: […] (SEQ ID NO: 8); NheI 4×HRE HindIII REV […] (SEQ ID NO: 9). The 4×HRE Luc PEST fragment was then PCRed from this plasmid with restriction enzyme sites NheI and XhoI at the two ends, and inserted into pLenti6/BLOCK iT DEST (Thermo Fisher Scientific) predigested with NheI and XhoI restriction enzymes. For the construction of the pLenti UB6 Luc PEST vector, the Luc PEST sequence was PCRed from pGL4.27 (Promega) using EcoRV and XhoI restriction enzymes at the two ends, and inserted into pLenti6/UBC/V5/DEST (Thermo Fisher Scientific) predigested with the same enzymes. 786-O and RCC4 cells (300,000 per well of a 6 well plate) were infected in the presence of 10 μg/ml polybrene with lentivirus harvested two days after transfection of HEK293-FT (ThermoFisher Scientific #R70007) cells (80% confluent in a 100 cm^2 dish) with a mix of 1.5 ml OptiMEM (ThermoFisher Scientific #31985062) containing 3 μg of the desired plasmids and 9 μl of ViralPower Packaging mix (ThermoFisher Scientific #K497500), and 1.5 ml OptiMEM containing 36 μl Lipofectamine 2000 (ThermoFisher Scientific #11668019). Successfully infected cells were selected using blasticidin (Gibco #A11139-03) at a final concentration of 5 μg/ml. The resulting stable cell lines were named 786-O pLenti 4×HRE Luc PEST (short: 786-O-HRE-Luc), 786-O pLenti UB6 Luc PEST (short: 786-O-UB6-Luc), RCC4 pLenti 4×HRE Luc PEST (short: RCC4-HRE-Luc) and RCC4 pLenti UB6 Luc PEST (short: RCC4-UB6-Luc). All 4 cell lines were maintained in growth medium composed of DMEM (GIBCO #11995-065), 2 mM L-Glutamine (BioConcept #5-10K50-H), 10% fetal calf serum (Gibco #A31608-01), 1× Penicillin/Streptomycin (BioConcept #4-01F00-H), 1 mM Sodium pyruvate (BioConcept #5-60F00-H) and 5 μg/ml blasticidin (Gibco #A11139-03) at 37° C. in a humidified 5% CO2 incubator.
For the reporter gene assay, the individual cell lines were seeded at 2,500 cells/20 μL/well into white-wall, clear-bottom 384-well plates (Greiner #781098) and incubated over night at 37° C. prior to addition of serial compound dilutions as described above. […]

Experiment [3] deals with HIF2α PAS-B domain (236-350, biotinylated on the N-terminus) (Homo sapiens (Human), UniProt Q99814).
HIF2α PAS-B domain (236-350, biotinylated on the N-terminus), sequence (Q99814 236-350): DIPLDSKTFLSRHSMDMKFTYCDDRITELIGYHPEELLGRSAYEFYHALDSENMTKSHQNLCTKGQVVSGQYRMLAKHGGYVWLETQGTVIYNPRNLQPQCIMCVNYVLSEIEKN
Description: The assay buffer contained 50 mM Tris-HCl pH7 (Sigma), 20 mM NaCl (Fluka), 0.02% BSA (Sigma), 0.005% Triton X-100 (Pierce) and 1 mM DTT (Fluka). After a 30 min incubation period, 5 μL Streptavidin PVT SPA Beads (Perkin Elmer) at 1.2 mg/mL, diluted in the buffer, were added.

As a reminder, the IC50 is the concentration that gives 50% inhibition. A high value points to a need for much substance. Regarding `FC(F)OC1=CC(C(F)(F)F)=CN2CC3(CCCc4c(C(F)(F)F)cccc43)N=C12` (racemic) [Example 87, rac-8-(difluoromethoxy)-5′,6-bis(trifluoromethyl)-3′,4′-dihydro-2′H,3H-spiro[imidazo[1,2-a]pyridine-2,1′-naphthalene]], it took 159 nM to reach half-maximal inhibition in experiment [1] (IC50).

For the molecule `Fc1ccc2c(c1F)CC[C@@]21CN2C=C(C(F)(F)F)C=C(OC(F)F)C2=N1` [Example 2, (S)-8-(difluoromethoxy)-4′,5′-difluoro-6-(trifluoromethyl)-2′,3′-dihydro-3H-spiro[imidazo[1,2-a]pyridine-2,1′-indene]], the IC50 in experiment [2] was 1530 nM; in experiment [3], 12 nM; in experiment [1], 152 nM.

`FC(F)OC1=CC(C(F)(F)F)=CN2C[C@@]3(CCc4cc(C(F)(F)F)ccc43)N=C12` [Example 6, (S)-8-(difluoromethoxy)-5′,6-bis(trifluoromethyl)-2′,3′-dihydro-3H-spiro[imidazo[1,2-a]pyridine-2,1′-indene]]: the IC50 in experiment [2] worked out at 250 nM; in experiment [1] it was 84 nM.

In the case of `FC(F)(F)C1=CN2C[C@@]3(CCc4c3ccc(Br)c4Cl)N=C2C(Cl)=C1` [Example 71, (S)-5′-bromo-4′,8-dichloro-6-(trifluoromethyl)-2′,3′-dihydro-3H-spiro[imidazo[1,2-a]pyridine-2,1′-indene]], the results for the IC50 in experiment [3] and in experiment [1] were 20 nM and 181 nM, respectively.

For `FC(F)OC1=CC(C(F)(F)F)=CN2C[C@@]3(CCc4cc(Br)ccc43)N=C12` [Example 72, (5)-5′-bromo-8-(difluoromethoxy)-6-(trifluoromethyl)-2′,3′-dihydro-3H-spiro[imidazo[1,2-a]pyridine-2,1′-indene]], the IC50 in experiment [3] was 7 nM; in experiment [1], 84 nM.

Regarding `FC(F)OC1=CC(C(F)(F)F)=CN2C[C@@]3(CCc4ccccc43)N=C12` [Example 75, (S)-8-(difluoromethoxy)-6-(trifluoromethyl)-2′,3′-dihydro-3H-spiro[imidazo[1,2-a]pyridine-2,1′-indene]], the figures for the IC50 in experiment [3] and in experiment [1] were 76 nM and 183 nM, respectively.

As for `Fc1cccc2c1CCC[C@@]21CN2C=C(C(F)(F)F)C=C(Cl)C2=N1` [Example 79, (S)-8-chloro-5′-fluoro-6-(trifluoromethyl)-3′,4′-dihydro-2′H,3H-spiro[imidazo[1,2-a]pyridine-2,1′-naphthalene]], the IC50 in experiment [3] came to 5 nM; in experiment [1], 70 nM.

As to `O=C1CC[C@@]2(CN3C=C(C(F)(F)F)C=C(OC(F)F)C3=N2)c2ccc(Br)cc21` [Example 90, (S)-6′-bromo-8-(difluoromethoxy)-6-(trifluoromethyl)-2′,3′-dihydro-3H,4′H-spiro[imidazo[1,2-a]pyridine-2,1′-naphthalen]-4′-one], the IC50 amounted to 10 nM in experiment [3] and 162 nM in experiment [1].

`N#CC1=CN2C[C@@]3(CCSc4c3ccc(Br)c4F)N=C2C(OC(F)F)=C1` [Example 110, (S)-7′-bromo-8-(difluoromethoxy)-8′-fluoro-3H-spiro[imidazo[1,2-a]pyridine-2,4′-thiochromane]-6-carbonitrile] gave an IC50 in experiment [1] of 35 nM.

In the case of `Fc1ccc2c(c1F)SCC[C@@]21CN2C=C(C(F)(F)F)C=C(OC(F)F)C2=N1` [Example 113, (S)-8-(difluoromethoxy)-7′,8′-difluoro-6-(trifluoromethyl)-3H-spiro[imidazo[1,2-a]pyridine-2,4′-thiochromane]], the IC50 in experiment [3] was determined as 4 nM; in experiment [1], 32 nM.

On to `Fc1cccc2c1CSC[C@@]21CN2C=C(C(F)(F)F)C=C(OC(F)F)C2=N1` [Example 115, (S)-8-(difluoromethoxy)-8′-fluoro-6-(trifluoromethyl)-3H-spiro[imidazo[1,2-a]pyridine-2,4′-isothiochromane]], for which the IC50 in experiment [3] is not above 3 nM; in experiment [1] it was 30 nM.

As for `Fc1ccc2c(c1)CSC[C@@]21CN2C=C(C(F)(F)F)C=C(OC(F)F)C2=N1` [Example 116, (S)-8-(difluoromethoxy)-7′-fluoro-6-(trifluoromethyl)-3H-spiro[imidazo[1,2-a]pyridine-2,4′-isothiochromane]], the IC50 was 6 nM in experiment [3] and 46 nM in experiment [1].
